Data from ChEMBL document CHEMBL4765227, “Hit to lead optimization of a series of N-[4-(1,3-benzothiazol-2-yl)phenyl]acetamides as monoacylglycerol lipase inhibitors with potential anticancer activity” (Eur J Med Chem, 2016).

How the values were obtained:
Format in all cases: functional
Conditions in all cases: read-out: GI
SNB-75 = assay: Growth inhibition of human SNB-75 cells at 10 uM incubated for 48 hrs by sulforhodamine B assay relative to control
U-251 = assay: Growth inhibition of human U-251 cells at 10 uM incubated for 48 hrs by sulforhodamine B assay relative to control
NCI-H522 = assay: Growth inhibition of human NCI-H522 cells at 10 uM incubated for 48 hrs by sulforhodamine B assay relative to control
SW-620 = assay: Growth inhibition of human SW-620 cells at 10 uM incubated for 48 hrs by sulforhodamine B assay relative to control
UO-31 = assay: Growth inhibition of human UO-31 cells at 10 uM incubated for 48 hrs by sulforhodamine B assay relative to control
NCI/ADR-RES = assay: Growth inhibition of human NCI/ADR-RES cells at 10 uM incubated for 48 hrs by sulforhodamine B assay relative to control
TK-10 = assay: Growth inhibition of human TK-10 cells at 10 uM incubated for 48 hrs by sulforhodamine B assay relative to control
OVCAR-5 = assay: Growth inhibition of human OVCAR-5 cells at 10 uM incubated for 48 hrs by sulforhodamine B assay relative to control
Malme-3M = assay: Growth inhibition of human Malme-3M cells at 10 uM incubated for 48 hrs by sulforhodamine B assay relative to control
SNB-19 = assay: Growth inhibition of human SNB-19 cells at 10 uM incubated for 48 hrs by sulforhodamine B assay relative to control
T47D = assay: Growth inhibition of human T47D cells at 10 uM incubated for 48 hrs by sulforhodamine B assay relative to control
HCT-15 = assay: Growth inhibition of human HCT-15 cells at 10 uM incubated for 48 hrs by sulforhodamine B assay relative to control
MDA-MB-231 = assay: Growth inhibition of human MDA-MB-231 cells at 10 uM incubated for 48 hrs by sulforhodamine B assay relative to control
MOLT-4 = assay: Growth inhibition of human MOLT-4 cells at 10 uM incubated for 48 hrs by sulforhodamine B assay relative to control
RXF 393 = assay: Growth inhibition of human RXF 393 cells at 10 uM incubated for 48 hrs by sulforhodamine B assay relative to control
CAKI-1 = assay: Growth inhibition of human CAKI-1 cells at 10 uM incubated for 48 hrs by sulforhodamine B assay relative to control
ACHN = assay: Growth inhibition of human ACHN cells at 10 uM incubated for 48 hrs by sulforhodamine B assay relative to control
SK-MEL-28 = assay: Growth inhibition of human SK-MEL-28 cells at 10 uM incubated for 48 hrs by sulforhodamine B assay relative to control
PC-3 = assay: Growth inhibition of human PC-3 cells at 10 uM incubated for 48 hrs by sulforhodamine B assay relative to control
UACC-62 = assay: Growth inhibition of human UACC-62 cells at 10 uM incubated for 48 hrs by sulforhodamine B assay relative to control
SN12C = assay: Growth inhibition of human SN12C cells at 10 uM incubated for 48 hrs by sulforhodamine B assay relative to control
K562 = assay: Growth inhibition of human K562 cells at 10 uM incubated for 48 hrs by sulforhodamine B assay relative to control
M14 = assay: Growth inhibition of human M14 cells at 10 uM incubated for 48 hrs by sulforhodamine B assay relative to control
MDA-MB-435 = assay: Growth inhibition of human MDA-MB-435 cells at 10 uM incubated for 48 hrs by sulforhodamine B assay relative to control
HOP-62 = assay: Growth inhibition of human HOP-62 cells at 10 uM incubated for 48 hrs by sulforhodamine B assay relative to control
SK-MEL-5 = assay: Growth inhibition of human SK-MEL-5 cells at 10 uM incubated for 48 hrs by sulforhodamine B assay relative to control
MDA-MB-468 = assay: Growth inhibition of human MDA-MB-468 cells at 10 uM incubated for 48 hrs by sulforhodamine B assay relative to control
SK-OV-3 = assay: Growth inhibition of human SK-OV-3 cells at 10 uM incubated for 48 hrs by sulforhodamine B assay relative to control
HCT-116 = assay: Growth inhibition of human HCT-116 cells at 10 uM incubated for 48 hrs by sulforhodamine B assay relative to control
CCRF-CEM = assay: Growth inhibition of human CCRF-CEM cells at 10 uM incubated for 48 hrs by sulforhodamine B assay relative to control
IGROV-1 = assay: Growth inhibition of human IGROV-1 cells at 10 uM incubated for 48 hrs by sulforhodamine B assay relative to control
RPMI-8226 = assay: Growth inhibition of human RPMI-8226 cells at 10 uM incubated for 48 hrs by sulforhodamine B assay relative to control
KM12 = assay: Growth inhibition of human KM12 cells at 10 uM incubated for 48 hrs by sulforhodamine B assay relative to control
A549 = assay: Growth inhibition of human A549/ATCC cells at 10 uM incubated for 48 hrs by sulforhodamine B assay relative to control
DU-145 = assay: Growth inhibition of human DU-145 cells at 10 uM incubated for 48 hrs by sulforhodamine B assay relative to control
BT-549 = assay: Growth inhibition of human BT-549 cells at 10 uM incubated for 48 hrs by sulforhodamine B assay relative to control
NCI-H322M = assay: Growth inhibition of human NCI-H322M cells at 10 uM incubated for 48 hrs by sulforhodamine B assay relative to control
HT-29 = assay: Growth inhibition of human HT-29 cells at 10 uM incubated for 48 hrs by sulforhodamine B assay relative to control
OVCAR-8 = assay: Growth inhibition of human OVCAR-8 cells at 10 uM incubated for 48 hrs by sulforhodamine B assay relative to control
NCI-H226 = assay: Growth inhibition of human NCI-H226 cells at 10 uM incubated for 48 hrs by sulforhodamine B assay relative to control
HCC 2998 = assay: Growth inhibition of human HCC 2998 cells at 10 uM incubated for 48 hrs by sulforhodamine B assay relative to control
HOP-92 = assay: Growth inhibition of human HOP-92 cells at 10 uM incubated for 48 hrs by sulforhodamine B assay relative to control
NCI-H460 = assay: Growth inhibition of human NCI-H460 cells at 10 uM incubated for 48 hrs by sulforhodamine B assay relative to control
HL-60(TB) = assay: Growth inhibition of human HL-60(TB) cells at 10 uM incubated for 48 hrs by sulforhodamine B assay relative to control

## O=C(CNc1nc(-c2ccc(Cl)cc2)cs1)Nc1ccc(-c2nc3ccccc3s2)cc1
SNB-75
  inhibition of growth at 10 µM: 22.2%
U-251
  inhibition of growth at 10 µM: 8.44%
NCI-H522
  inhibition of growth at 10 µM: 6.86%
SW-620
  inhibition of growth at 10 µM: 0.12%
UO-31
  inhibition of growth at 10 µM: 25.1%
NCI/ADR-RES
  inhibition of growth at 10 µM: 5.81%
TK-10
  inhibition of growth at 10 µM: 33.5%
OVCAR-5
  inhibition of growth at 10 µM: 9.63%
Malme-3M
  inhibition of growth at 10 µM: -1.86%
SNB-19
  inhibition of growth at 10 µM: 1.83%
T47D
  inhibition of growth at 10 µM: 43.9%
HCT-15
  inhibition of growth at 10 µM: -10.2%
MDA-MB-231
  inhibition of growth at 10 µM: 15.3%
MOLT-4
  inhibition of growth at 10 µM: 7.26%
RXF 393
  inhibition of growth at 10 µM: -6.02%
CAKI-1
  inhibition of growth at 10 µM: 5.79%
ACHN
  inhibition of growth at 10 µM: -5.08%
SK-MEL-28
  inhibition of growth at 10 µM: -10.9%
PC-3
  inhibition of growth at 10 µM: 9.25%
UACC-62
  inhibition of growth at 10 µM: 8.08%
SN12C
  inhibition of growth at 10 µM: -0.85%
K562
  inhibition of growth at 10 µM: 3.58%
M14
  inhibition of growth at 10 µM: 11.8%
MDA-MB-435
  inhibition of growth at 10 µM: -4.48%
HOP-62
  inhibition of growth at 10 µM: -6.21%
SK-MEL-5
  inhibition of growth at 10 µM: 12.3%
MDA-MB-468
  inhibition of growth at 10 µM: 140%
SK-OV-3
  inhibition of growth at 10 µM: 4.97%
HCT-116
  inhibition of growth at 10 µM: 4.49%
CCRF-CEM
  inhibition of growth at 10 µM: 7.04%
IGROV-1
  inhibition of growth at 10 µM: 40.9%
RPMI-8226
  inhibition of growth at 10 µM: 12.6%
KM12
  inhibition of growth at 10 µM: 0.97%
A549
  inhibition of growth at 10 µM: 0.99%
DU-145
  inhibition of growth at 10 µM: 5.04%
BT-549
  inhibition of growth at 10 µM: -6.9%
NCI-H322M
  inhibition of growth at 10 µM: 8.37%
HT-29
  inhibition of growth at 10 µM: -8.34%
OVCAR-8
  inhibition of growth at 10 µM: 2.01%
NCI-H226
  inhibition of growth at 10 µM: 19.7%
HCC 2998
  inhibition of growth at 10 µM: 2.47%
HOP-92
  inhibition of growth at 10 µM: 7.09%
NCI-H460
  inhibition of growth at 10 µM: 8.75%
HL-60(TB)
  inhibition of growth at 10 µM: 0.71%

## Cc1ccc(NCC(=O)Nc2ccc(-c3nc4ccccc4s3)cc2)cc1
SNB-75
  inhibition of growth at 10 µM: -0.38%
U-251
  inhibition of growth at 10 µM: 19.4%
NCI-H522
  inhibition of growth at 10 µM: 12.3%
SW-620
  inhibition of growth at 10 µM: -7.34%
UO-31
  inhibition of growth at 10 µM: 37.5%
NCI/ADR-RES
  inhibition of growth at 10 µM: 2.16%
TK-10
  inhibition of growth at 10 µM: -7.12%
OVCAR-5
  inhibition of growth at 10 µM: -6.57%
Malme-3M
  inhibition of growth at 10 µM: -21.5%
SNB-19
  inhibition of growth at 10 µM: 10.5%
T47D
  inhibition of growth at 10 µM: 33.8%
HCT-15
  inhibition of growth at 10 µM: 13.4%
MDA-MB-231
  inhibition of growth at 10 µM: 22.3%
MOLT-4
  inhibition of growth at 10 µM: 41.9%
RXF 393
  inhibition of growth at 10 µM: 10.7%
CAKI-1
  inhibition of growth at 10 µM: 0.82%
ACHN
  inhibition of growth at 10 µM: -6.82%
SK-MEL-28
  inhibition of growth at 10 µM: -17.2%
PC-3
  inhibition of growth at 10 µM: 8.39%
UACC-62
  inhibition of growth at 10 µM: 14.5%
SN12C
  inhibition of growth at 10 µM: 11.1%
K562
  inhibition of growth at 10 µM: -0.15%
M14
  inhibition of growth at 10 µM: 3.66%
MDA-MB-435
  inhibition of growth at 10 µM: -1.83%
HOP-62
  inhibition of growth at 10 µM: 3.62%
SK-MEL-5
  inhibition of growth at 10 µM: 11.3%
MDA-MB-468
  inhibition of growth at 10 µM: 13%
SK-OV-3
  inhibition of growth at 10 µM: -13.1%
HCT-116
  inhibition of growth at 10 µM: 5.72%
CCRF-CEM
  inhibition of growth at 10 µM: 60.1%
IGROV-1
  inhibition of growth at 10 µM: 7.63%
RPMI-8226
  inhibition of growth at 10 µM: 18.6%
KM12
  inhibition of growth at 10 µM: 0.91%
A549
  inhibition of growth at 10 µM: 13.8%
DU-145
  inhibition of growth at 10 µM: 5.52%
BT-549
  inhibition of growth at 10 µM: 35.4%
NCI-H322M
  inhibition of growth at 10 µM: 4.73%
HT-29
  inhibition of growth at 10 µM: -6.9%
OVCAR-8
  inhibition of growth at 10 µM: 7.13%
NCI-H226
  inhibition of growth at 10 µM: 5.78%
HCC 2998
  inhibition of growth at 10 µM: 17%
HOP-92
  inhibition of growth at 10 µM: 15.7%
NCI-H460
  inhibition of growth at 10 µM: -2.34%
HL-60(TB)
  inhibition of growth at 10 µM: 18.2%
